Experimental data from ChEMBL document CHEMBL4052746, “Flavonoid glycosides from Barringtonia acutangula” (Bioorg Med Chem Lett, 2017).

Experiments:
[1] = tested on: RAW264.7; test: Cytotoxicity against mouse RAW264.7 cells assessed as reduction in cell viability by MTT assay; assay type: cell-based
[2] = tested on: RAW264.7; test: Antiinflammatory activity in mouse RAW264.7 cells assessed as inhibition of LPS-induced NO production pretreated for 30 mins followed by LPS stimulation for 24 hrs by Griess assay; assay type: functional, cell-based

IC50 [2]: 20 µM
SMILES: O=C(OC[C@H]1O[C@@H](Oc2c(-c3ccc(O)c(O)c3)oc3cc(O)cc(O)c3c2=O)[C@H](O)[C@@H](O)[C@H]1O)c1ccc(O)cc1
Activity [1]: Non-Toxic
